Measured values from patent US20250154127A1, “BICYCLIC HETEROARYL COMPOUNDS AND USES THEREOF” (ETERN BIOPHARMA (SHANGHAI) CO., LTD., priority 2022, published 2025).

Experiments:
[1] = target: TEAD1(210-426) binding to YAP(50-100) (Homo sapiens, UniProt P28347); test: TR-FRET Assay for TEAD1(210-426) Binding to YAP(50-100); conditions: His-TEAD 10 nM, YAP-Biotin peptide 50 nM
Procedure: Compounds were performed 3 fold serial dilution, 12 data points, added to 384 well white plate. The final DMSO concentration is 1%, duplicate for each concentration. Then His-TEAD protein was added to a final concentration of 10 nM, and allowed to preincubate for 30 minutes at room temperature. Assay buffer was added as background control.
YAP-Biotin peptide was added to a final concentration of 50 nM, mixed well, incubate 10 minutes at room temperature. The YAP(50-100) peptide sequence used here is named SEQ ID NO: 2
The Europium-labeled anti-6×His antibody and APC labeled streptavidin were diluted according to the instructions, this detection solution was mixed 1:1 with reaction solution, incubated 1 hour at room temperature.
TR-FRET measurements were made on an Envision (Perkin Elmer), using an excitation wavelength of 320 nm and emissions read at 620 nm and 665 nm. The ratio of the 665 nm to the 620 nm multiply 10000 provides a normalized TR-FRET signal that represents the extent of binding.
Half inhibition concentration IC50 value was calculated by XLfit software.

[2] = tested on: MSTO-211H cells; test: Proliferation Assay (CellTiter-Glo Luminescent Cell Viability Assay); type: cell-based; conditions: Homo sapiens, 96 hours treatment
Procedure: Example 5: Proliferation Assay
The effect of compound on YAP driven cancer cells proliferation was assessed in MSTO-211H (ATCC, CRL-2081TM) or NCI-H2052 (ATCC, CRL-5915TM) cells using CellTiter-Glo Luminescent Cell Viability Assay (Promega, G7570).
Briefly, individual cell lines were seeded in 96-well cell culture plate at the density of 1,500 cells per well and cultured in RPMII1640 (Gibco-A10491-01)+10% FBS (Gibco-10099-141C)+1% Penicillin-Streptomycin (5,000 U/mL, Gibco-15070-063) overnight at 37° C. with 5% CO2 before adding the compounds.
Following incubation, serial dilutions of compounds dissolved in DMSO were added to each well (3-fold dilution with 9 concentration points). The final concentration of DMSO present in this assay is below 0.5% and make duplication for each compound treated well.
Following 96 hours treatment, compound mediated cell growth inhibition was measured using CellTiter-Go Luminescent Cell Viability Assay (Promega, G7570). […] CellTiter-Glo in each assay well, mix and incubate at room temperature for 10 min. Read signal using EnVision® Multilabel Plate Reader (Perkin Elmer).
For data analysis, cell proliferation inhibition was calculated using the following formula:
Inhibition %=(1−(Compound treated well CTG signal/DMSO well CTG signal))*100.
IC50 values were calculated using GraphPad Prism software using a four-parameter fit model.

Sequence of TEAD1(210-426) binding to YAP(50-100) (P28347 209-426): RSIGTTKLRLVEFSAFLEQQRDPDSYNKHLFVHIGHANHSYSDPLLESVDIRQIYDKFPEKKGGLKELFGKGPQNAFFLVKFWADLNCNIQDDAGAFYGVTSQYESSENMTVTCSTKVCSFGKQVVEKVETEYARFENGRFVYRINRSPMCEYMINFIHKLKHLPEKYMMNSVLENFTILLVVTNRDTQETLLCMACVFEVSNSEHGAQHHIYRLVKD

Compound | IC50 [1] | IC50 [2]
C[C@@H](c1ccccn1)n1ccc(-c2nn(-c3ccc(C(F)(F)F)cc3)c3cc(C#N)ccc23)cc1=O [Compound 31, (S)-3-(2-oxo-1-(1-(pyridin-2-yl)ethyl)-1,2-dihydropyridin-4-yl)-1-(4-(trifluoromethyl)phenyl)-1H-indazole-6-carbonitrile] | > 1 µM | ≤ 1 µM
CO[C@H]1C[C@@H](Nc2ccnc(Cn3ccc(-c4nn(-c5ccc(C(F)(F)F)cc5)c5ccccc45)cc3=O)n2)C1 [Compound 90, 1-((4-(((1s,3s)-3-methoxycyclobutyl)amino)pyrimidin-2-yl)methyl)-4-(1-(4-(trifluoromethyl)phenyl)-1H-indazol-3-yl)pyridin-2(1H)-one] | 0.1 to 1 µM | ≤ 1 µM
CNc1nccc(Cn2ccc(-c3nn(-c4ccc(C(F)(F)F)cc4)c4c(OC)cccc34)cc2=O)n1 [Compound 142, 4-(7-methoxy-1-(4-(trifluoromethyl)phenyl)-1H-indazol-3-yl)-1-((2-(methylamino)pyrimidin-4-yl)methyl)pyridin-2(1H)-one] | 0.1 to 1 µM | ≤ 1 µM
CNc1ccnc(Cn2ccc(-c3nn(-c4ccc(C(F)(F)F)cc4)c4nccnc34)cc2=O)n1 [Compound 104, 1-((4-(methylamino)pyrimidin-2-yl)methyl)-4-(1-(4-(trifluoromethyl)phenyl)-1H-pyrazolo[3,4-b]pyrazin-3-yl)pyridin-2(1H)-one] | 0.1 to 1 µM | ≤ 1 µM
CN(CCO)c1nccc(Cn2ccc(-c3nn(-c4ccc(C(F)(F)F)cc4)c4c(F)cccc34)cc2=O)n1 [Compound 138, 4-(7-fluoro-1-(4-(trifluoromethyl)phenyl)-1H-indazol-3-yl)-1-((2-((2-hydroxyethyl)(methyl)amino)pyrimidin-4-yl)methyl)pyridin-2(1H)-one] | 0.1 to 1 µM | ≤ 1 µM
CNc1nccc(Cn2ccc(-n3nc(-c4ccc(C(F)(F)F)cc4)c4c(F)cccc43)cc2=O)n1 [Compound 135, 4-(4-fluoro-3-(4-(trifluoromethyl)phenyl)-1H-indazol-1-yl)-1-((2-(methylamino)pyrimidin-4-yl)methyl)pyridin-2(1H)-one] | ≤ 0.1 µM | ≤ 1 µM

Second part, led by results:

IC50 [1] | Compound | IC50 [2]
≤ 0.1 µM | CN(CCO)c1nccc(Cn2ccc(-c3nn(-c4ccc(C(F)(F)F)cc4)c4ccccc34)cc2=O)n1 [Compound 94, 1-((2-((2-hydroxyethyl)(methyl)amino)pyrimidin-4-yl)methyl)-4-(1-(4-(trifluoromethyl)phenyl)-1H-indazol-3-yl)pyridin-2(1H)-one] | ≤ 1 µM
≤ 0.1 µM | Cn1ccc(Cn2ccc(-c3nn(-c4ccc(C(F)(F)F)cc4)c4ncccc34)cc2=O)n1 [Compound 111, 1-((1-methyl-1H-pyrazol-3-yl)methyl)-4-(1-(4-(trifluoromethyl)phenyl)-1H-pyrazolo[3,4-b]pyridin-3-yl)pyridin-2(1H)-one] | ≤ 1 µM
≤ 0.1 µM | CNc1nccc(Cn2ccc(-c3nn(-c4ccc(C(F)(F)F)cc4)c4ccccc34)cc2=O)n1 [Compound 92, 1-((2-(methylamino)pyrimidin-4-yl)methyl)-4-(1-(4-(trifluoromethyl)phenyl)-1H-indazol-3-yl)pyridin-2(1H)-one] | ≤ 1 µM
≤ 0.1 µM | CNc1nccc(Cn2ccc(-c3nn(-c4ccc(C(F)(F)F)cc4)c4ccc(F)cc34)cc2=O)n1 [Compound 140, 4-(5-fluoro-1-(4-(trifluoromethyl)phenyl)-1H-indazol-3-yl)-1-((2-(methylamino)pyrimidin-4-yl)methyl)pyridin-2(1H)-one] | ≤ 1 µM
≤ 0.1 µM | COCCNc1ccnc(Cn2ccc(-c3nn(-c4ccc(C(F)(F)F)cc4)c4ccccc34)cc2=O)n1 [Compound 78, 1-((4-((2-methoxyethyl)amino)pyrimidin-2-yl)methyl)-4-(1-(4-(trifluoromethyl)phenyl)-1H-indazol-3-yl)pyridin-2(1H)-one] | ≤ 1 µM
